Data as given in article PMC11672294, “The Antipsychotic Drug Aripiprazole Suppresses Colorectal Cancer by Targeting LAMP2a to Induce RNH1/miR‐99a/mTOR‐Mediated Autophagy and Apoptosis” (Advanced Science, 2024).
Structures can show the parent of a compound that is named as a salt.

test system: HT29; conditions: 72 h, relative to DMSO, 10 µM, Relative cell viability (%)
Method in brief: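 HT29 viability used WST-1 reduction (2 h, 37 °C, A450) after 72 h of treatment; screening compounds were tested singly at 10 µM, with dimethyl sulfoxide as the comparison.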

SMILES | Relative cell viability (%)
COc1ccc(C[C@@H]2c3cc(OC)c(OC)cc3CC[N@+]2(C)CCC(=O)OCCCCCOC(=O)CC[N@@+]2(C)CCc3cc(OC)c(OC)cc3[C@H]2Cc2ccc(OC)c(OC)c2)cc1OC [Atracurium Besylate] | 91.95%
CC/C(=C(\c1ccccc1)c1ccc(OCCN(C)C)cc1)c1ccccc1 [Tamoxifen Citrate] | 47.42%
CCOC(=O)C1=C(COCCN)NC(C)=C(C(=O)OC)C1c1ccccc1Cl (stereo not drawn) [Amlodipine besylate (Norvasc)] | 75.42%

same assay, conditions: 72 h, relative to DMSO; 10 µM

SMILES | Relative cell viability (%)
CC(C)(Sc1cc(C(C)(C)C)c(O)c(C(C)(C)C)c1)Sc1cc(C(C)(C)C)c(O)c(C(C)(C)C)c1 [Probucol] | 130.3%
O=C(O)c1ccc2c(c1)nc(Nc1cccc(Cl)c1)c1ccncc12 [CX-4945 (Silmitasertib)] | 120.8%
COc1ccccc1OCCNCC(O)COc1cccc2[nH]c3ccccc3c12 (stereo not drawn) [Carvedilol] | 24.58%
CC(C[N+](C)(C)C)OC(N)=O (stereo not drawn) [Bethanechol chloride] | 104.3%
CNC1CCCN(c2c(F)cc3c(=O)c(C(=O)O)cn(C4CC4)c3c2OC)C1 (stereo not drawn) [Balofloxacin] | 111.9%
CN(C)CCOC(C)(c1ccccc1)c1ccccn1 (stereo not drawn) [Doxylamine Succinate] | 83.94%
C[C@@](Cc1ccc(O)c(O)c1)(NN)C(=O)O [Carbidopa] | 97.03%
CCOC(=O)[C@H](CCc1ccccc1)N[C@H]1CCCN2CCC[C@@H](C(=O)O)N2C1=O [Cilazapril Monohydrate] | 112%
COCCc1ccc(OCC(O)CNC(C)C)cc1 (stereo not drawn) [Metoprolol Tartrate] | 94.49%
Cc1ccc(C(=O)C(C)CN2CCCCC2)cc1 (stereo not drawn) [Tolperisone HCl] | 89.39%
CN(C)[C@@H]1C(O)=C(C(N)=O)C(=O)[C@@]2(O)C(O)=C3C(=O)c4c(O)cccc4[C@@](C)(O)[C@H]3[C@H](O)[C@@H]12 [Oxytetracycline Dihydrate] | 170.4%
NC[C@H](O)c1ccc(O)c(O)c1 [Noradrenaline bitartrate monohydrate] | 75.24%
O=C(O)CCc1nc(-c2ccccc2)c(-c2ccccc2)o1 [Oxaprozin] | 63.03%
O=C(O)c1nn(Cc2ccc(Cl)cc2Cl)c2ccccc12 [Lonidamine] | 47.57%
CCOC(=O)[C@H](CCc1ccccc1)N[C@H]1CS[C@H](c2cccs2)CN(CC(=O)O)C1=O [Temocapril HCl] | 117.3%
N[C@@H](Cc1cc(I)c(Oc2cc(I)c(O)c(I)c2)c(I)c1)C(=O)O [L-Thyroxine] | 67.96%
COc1ccc(C(=O)CC(=O)c2ccc(C(C)(C)C)cc2)cc1 [Avobenzone] | 117.3%
COCCCOc1cc(C[C@@H](C[C@H](N)[C@@H](O)C[C@H](C(=O)NCC(C)(C)C(N)=O)C(C)C)C(C)C)ccc1OC [Aliskiren Hemifumarate] | 106.1%
CC(C)OC(=O)[C@H](C)N[P@](=O)(CO[C@H](C)Cn1cnc2c(N)ncnc21)Oc1ccccc1 [Tenofovir Alafenamide (GS-7340)] | 125.2%
COc1ccccc1N1CCN(CCCNc2cc(=O)n(C)c(=O)n2C)CC1 [Urapidil HCl] | 222.9%
FC(F)(F)c1ccc(CNc2ccc(Cc3c[nH]c4ncc(Cl)cc34)cn2)cn1 [Pexidartinib (PLX3397)] | 54.7%

SMILES | Relative cell viability (%)
C[C@@H]1O[C@@H](OC[C@H]2O[C@@H](Oc3c(-c4ccc(O)c(O)c4)oc4cc(O)cc(O)c4c3=O)[C@H](O)[C@@H](O)[C@@H]2O)[C@H](O)[C@H](O)[C@H]1O [Rutin] | 112%
CC(C(=O)O)c1cccc(Oc2ccccc2)c1 (stereo not drawn) [Fenoprofen Calcium] | 99.58%
COCCCN1CCC(NC(=O)c2cc(Cl)c(N)c3c2OCC3)CC1 [Prucalopride] | 129.1%
CCN(c1cc(-c2ccc(CN3CCOCC3)cc2)cc(C(=O)NCc2c(C)cc(C)[nH]c2=O)c1C)C1CCOCC1 [EPZ-6438] | 121.4%
Fc1ccc([C@@H]2CCNC[C@H]2COc2ccc3c(c2)OCO3)cc1 [Paroxetine HCl] | 19.9%
CCC(=O)NCC[C@@H]1CCc2ccc3c(c21)CCO3 [Ramelteon] | 64.95%
CC(/C=C1\SC(=S)N(CC(=O)O)C1=O)=C\c1ccccc1 [Epalrestat] | 135.7%
Clc1ccc2c(c1)C(N1CCNCC1)=Nc1ccccc1O2 [Amoxapine] | 73.94%
CCOC(=O)[C@H]1O[C@@H]1C(=O)N[C@@H](CC(C)C)C(=O)NCCC(C)C [Aloxistatin] | 100.9%
c1ccc(-c2ccc(C(c3ccccc3)n3ccnc3)cc2)cc1 (stereo not drawn) [Bifonazole] | 88.14%
C[C@H]1O[C@@H](n2cc(F)c(=O)[nH]c2=O)[C@H](O)[C@@H]1O [Doxifluridine] | 150.2%
COc1cc2ncnc(Nc3ccc(F)c(Cl)c3)c2cc1NC(=O)/C=C/CN1CCCCC1 [Dacomitinib (PF299804, PF299)] | 11.17%
Cc1c(OCC(F)(F)F)ccnc1C[S+]([O-])c1nc2ccccc2[nH]1 (stereo not drawn) [Lansoprazole] | 63.4%
O[C@@H]1CO[C@H]2[C@@H]1OC[C@@H]2O [Isosorbide] | 83.94%
COc1cccc2c1C(=O)c1c(O)c3c(c(O)c1C2=O)C[C@@](O)(C(C)=O)C[C@@H]3O[C@H]1C[C@H](N)[C@H](O)[C@H](C)O1 [Daunorubicin HCl] | 12.62%
Sc1ncnc2nc[nH]c12 [Mercaptopurine (6-MP)] | 52.49%
C[C@H](CS)C(=O)N1CCC[C@H]1C(=O)O [Captopril] | 243.5%
CNC(=O)c1cc(Oc2ccc(NC(=O)Nc3ccc(Cl)c(C(F)(F)F)c3)cc2)ccn1 [Sorafenib] | 21.37%
Cc1c(N)nc([C@H](CC(N)=O)NC[C@H](N)C(N)=O)nc1C(=O)N[C@H](C(=O)N[C@H](C)[C@@H](O)[C@H](C)C(=O)N[C@H](C(=O)NCCc1nc(-c2nc(C(=O)NCCC[S+](C)C)cs2)cs1)[C@@H](C)O)[C@@H](O[C@@H]1O[C@@H](CO)[C@@H](O)[C@H](O)[C@@H]1O[C@H]1O[C@H](CO)[C@@H](O)[C@H](OC(N)=O)[C@@H]1O)c1c[nH]cn1 [Bleomycin Sulfate] | 74.3%
OC(Cn1cncn1)(Cn1cncn1)c1ccc(F)cc1F [Fluconazole] | 66.51%
O=C1OC(CN2CCOCC2)CN1/N=C/c1ccc([N+](=O)[O-])o1 (stereo not drawn) [Furaltadone HCl] | 75.76%
